From patent US6858402B2 (The Regents of the University of California, priority 1996, dated 2005)

How the values were obtained:
[1] = Bauditz et al. (1997); cited from earlier work
MRC-5 = experiment: Induction of TRRE by PMA stimulation, TRRE assay of supernatant; assay type: cell-based, human; conditions: MRC-5, 10^−6 M PMA
Text: (§1) THP-1 (a human monocytic leukemia cell line), U-937 (a human histiocytic lymphoma cell line), HL-60 (a human promyelocytic leukemia cell line), Raji (a human Burkitt lymphoma cell line) and K-562 (a human myelogenous leukemia cell line), which grow in suspension, and ME-180 (a human epidermoid carcinoma cell line) and MRC-5 (a human lung fibroblast cell line), which grow adherently, were purchased from American Type Culture Collection (Rockville, Md.). These cell lines were passed twice a week in RPMI-1640/10% heat-inactivated FCS.
(§2) Suspension cell lines including THP-1, U-937, HL-60, Raji and K-562 at a density of 1×10^6 cells/ml were stimulated in RPMI-1640/1% FCS-with 10^−6 M PMA for 30 min in 5% CO2 at 37° C. After pelleting the cells and discarding the supernatants, the cells were washed once with serum-free medium and then incubated for 2 more hours at the same density of 1×10^6 cells/ml in PMA-free RPMI-1640/1% FCS. Adherent cell lines including ME-180 and MRC-5 were seeded in 100 mm cell culture plates with RPMI-1640/10% FCS-at a density of 6×10^6 cells/10 ml/plate in 5% CO2 at 37° C. overnight. After discarding the medium from the 100 mm plates, these adherent cells were stimulated in 6 ml of RPMI-1640/1% FCS with 10^−6 M PMA (at an approximate density of 1×10^6 cells/ml) for 30 min in 5% CO2 at 37° C. Following washing of the plates with serum-free medium 3 times, the cells were incubated for 2 more hours in 6 ml of PMA-free RPMI-1640/1% FCS.

HL-60 = experiment: as above; assay type: cell-based, human; conditions: HL-60, 10^−6 M PMA
Text: as §1, §2

K-562 = experiment: as above; assay type: cell-based, human; conditions: K-562, 10^−6 M PMA
Text: as §1, §2

Raji = experiment: as above; assay type: cell-based, human; conditions: 10^−6 M PMA
Text: as §1, §2

U-937 = experiment: as above; assay type: cell-based, human; conditions: U-937, 10^−6 M PMA
Text: as §1, §2

ME-180 = experiment: as above; assay type: cell-based, human; conditions: ME-180, 10^−6 M PMA
Text: as §1, §2

THP-1 cells [2] = experiment: as above; assay type: cell-based, human; conditions: for TRRE Activity (U/ml): THP-1, 10^−6 M PMA 30 min
[3] = tested on: human peripheral blood monocytes; experiment: as above; assay type: cell-based; conditions: for TRRE Activity (U): Human Monocyte
Protocol: (§3) C75R cells and COS-1 cells were seeded into 24-well culture plates at a density of 2.5×10^5 cells/ml/well and incubated overnight (for 12 to 16 hours) in 5% CO2 at 37° C. […] (corresponding to A and C mentioned below, respectively). Simultaneously, C75R cells in 24-well plates were also incubated with 300 μl of fresh medium or buffer (corresponding to B mentioned below). The supernatants were collected, centrifuged, and then assayed for the concentration of soluble p75 TNF-R by ELISA as described above.
Mononuclear cells were harvested at the interface of an isotonic Ficoll cushion (specific gravity, 1.05) from a Leukopac obtained from normal healthy volunteers according to the manufacturer's instructions (Sigma). Then monocytes were isolated by counterflow centrifugal elutriation with a Beckman JE-5.0 system. On average, the purity of the monocyte fraction was over 95%, as judged by morphologic examination and nonspecific esterase staining, and viability was over 98% as assessed by the trypan blue dye exclusion test.
(§4) The stimulated cells were washed with serum-free medium and resuspended in the same volume of PMA-free medium with 1% FCS for 2 more hours in 5% CO2 at 37° C.

THP-1 cells [4] = experiment: as above; assay type: cell-based, human
Protocol: THP-1 cells growing in logarithmic phase were collected and resuspended to 1×10^6 cells/ml of RPMI-1640 supplemented with 1% FCS and incubated with 10^−6 M PMA for 30 min in 5% CO2 at 37° C. The cells were collected and washed once with serum-free medium to remove PMA and resuspended in the same volume of RPMI-1640 with 1% FCS. After 2 hours incubation in 5% CO2 at 37° C., the cell suspension was collected, centrifuged, and the cell-free supernatant was collected as the TRRE-containing sample.
Briefly, C75R and COS-1 cells were seeded at 2.5×10^5 cells/ml/well in a 24-well culture plate and incubated in 5% CO2 at 37° C. for 12 to 16 hours. […] Simultaneously, C75R was incubated with 300 μl of fresh medium or buffer. At the end of the incubation period, the samples from each well were collected and the levels of soluble p75 TNF-R were measured by ELISA.
as §3, §4, §2
THP-1 cells were stimulated with 10−6 M PMA in RPMI-1640 with 1% FCS for 30 min.
THP-1 cells at a density of 1×10^6 cells/ml were stimulated in 1% FCS-contained RPMI-1640 with 10^−6 M PMA for 30 min at 37° C. in 5% CO2. After washing the cells with serum-free medium to remove PMA, the cells were incubated in the same volume of 1% FCS-contained RPMI-1640 without PMA for 2 hours at 37° C. in 5% CO2. Then the cells were centrifuged down and the supernatant was collected for TRRE assay. These pelleted cells were again resuspended in 1% FCS-contained RPMI-1640 with or without 10^−6 M PMA and incubated for 30 min at 37° C. in 5% CO2. After washing the cells with serum-free medium to remove PMA, the cells, stimulated or non-stimulated by PMA, were incubated in the same volume of 1% FCS-contained RPMI-1640 without PMA for 2 and 4 hours each at 37° C. in 5% CO2.

[5] = tested on: soluble p75 and p55 TNF-R; conditions: Crowe et al. (1995); Mullberg et al. (1995); cited from earlier work
TNF [6] = conditions: Shohami et al. (1997); cited from earlier work
TNF [7] = conditions: in vitro and in vivo; Solorzano et al. (1997); cited from earlier work

For CC(=O)CCCCn1c(=O)c2c(ncn2C)n(C)c1=O [oxpentifylline], the “course of Crohn's disease” value [1] is listed as “did not alter the course”.
For CCCCCCCCCCCCCC(=O)O[C@@H]1[C@@H](C)[C@@]2(O)[C@@H](C=C(CO)C[C@]3(O)C(=O)C(C)=C[C@@H]23)[C@@H]2C(C)(C)[C@]12OC(C)=O [PMA, phorbol 12-myristate 13-acetate], the “TRRE (U/ml/10^6 cells)” value (MRC-5) was 1,477 U/ml/10^6 cells, the “TRRE (U/ml/10^6 cells)” value (HL-60) was 3,144 U/ml/10^6 cells and the “TRRE (U/ml/10^6 cells)” value (K-562) was 3,356 U/ml/10^6 cells. The “TRRE (U/ml/10^6 cells)” value (Raji) was 2,390 U/ml/10^6 cells, the “TRRE (U/ml/10^6 cells)” value (U-937) was 3,288 U/ml/10^6 cells and the “TRRE (U/ml/10^6 cells)” value (ME-180) was 1,694 U/ml/10^6 cells. The “TRRE produced (FIG. 10A)” value (THP-1 cells [2]; PMA-stimulated THP-1, 0% FCS) was 217 U/ml, the “TRRE Activity (U/ml)” value (THP-1 cells [2]; then 2 hours PMA-free with 0% FCS) was 224 U/ml and the “TRRE Activity (U/ml)” value (THP-1 cells [2]; then 2 hours PMA-free with 10% FCS) was 2,275 U/ml. For the same compound, the TRRE induction (THP-1 cells [2]; THP-1, 10^−8 M PMA) was “did not induce any TRRE”, the “TRRE Activity (U)” value (THP-1 cells [2]; THP-1, PMA 10^−7 M) was 368 U and the “TRRE Activity (U)” value ([3]; PMA 10^−6 M) was 883 U. For the same compound, the “TRRE Activity (U)” value ([3]; PMA 10^−7 M) was 51 U, the TRRE release ([3]; human monocytes, 10^−6 M PMA 30 min, then 2 hours PMA-free) was 883 U/ml and the TRRE induction ([3]; monocytes, 10^−8 M PMA) was “did not induce any TRRE”. For the same compound, the “TRRE produced (FIG. 10A)” value (THP-1 cells [4]; PMA-stimulated THP-1, 1% FCS) was 2,096 U/ml, the “TRRE (U/ml/10^6 cells)” value (THP-1 cells [4]; THP-1, 10^−6 M PMA) was 2,884 U/ml/10^6 cells and the TRRE release (THP-1 cells [4]; THP-1, 10^−6 M PMA 30 min, then 2 hours PMA-free) was 1,304 U/ml. For the same compound, the “TRRE Activity (U/ml)” value (THP-1 cells [4]; THP-1, 10^−6 M PMA 30 min, then 2 hours PMA-free with 1% FCS) was 1,356 U/ml, the “TRRE Activity (U)” value (THP-1 cells [4]; THP-1, PMA 10^−6 M) was 1,304 U and the TRRE released (THP-1 cells [4]; THP-1, after first PMA stimulation, no second PMA, 2 hours and 4 hours) was “no TRRE activity”. For the same compound, the TRRE released (THP-1 cells [4]; THP-1, first stimulation of PMA) was 951 U/ml, the TRRE released (THP-1 cells [4]; THP-1, second PMA stimulation 30 min, additional 2 hours PMA-free) was 1,245 U/ml and the TRRE released (THP-1 cells [4]; THP-1, second PMA stimulation 30 min, additional 4 hours PMA-free) was 1,044 U/ml.
In the case of TAPI, the “shedding of soluble p75 and p55 TNF-R” value [5] is given as “blocks the shedding”.
For CCCCCCC(C)(C)c1cc(O)c2c(c1)OC(C)(C)[C@H]1CC=C(CO)C[C@H]21 [dexanabinol], the “protection against TNF following traumatic brain injury” value (TNF [6]) is listed as “provided protection”.
For CNC(=O)[C@H](Cc1c[nH]c2ccccc12)NC(=O)[C@@H](CC(=O)NO)CC(C)C [GM-6001], the “release of TNF” value (TNF [7]) is listed as “prevents the release of TNF”.
